# Data reported in patent publication US12324802B2, “Modulators of cystic fibrosis transmembrane conductance regulator” (Vertex Pharmaceuticals Incorporated, priority 2020, dated 2025).
# Molecular target: T1, CFTR (F508del/MF-HBE cells) (Homo sapiens, UniProt P13569, DEL508-508)
# T1 construct: human bronchial epithelial (HBE) cells derived from CF subjects heterozygous for F508del and a minimal function CFTR mutation; endogenous in cells; host or cells: primary human bronchial epithelial cells from CF subjects (F508del/MF genotype)
# T1 sequence (P13569 with tags, fused parts or gaps DEL508-508): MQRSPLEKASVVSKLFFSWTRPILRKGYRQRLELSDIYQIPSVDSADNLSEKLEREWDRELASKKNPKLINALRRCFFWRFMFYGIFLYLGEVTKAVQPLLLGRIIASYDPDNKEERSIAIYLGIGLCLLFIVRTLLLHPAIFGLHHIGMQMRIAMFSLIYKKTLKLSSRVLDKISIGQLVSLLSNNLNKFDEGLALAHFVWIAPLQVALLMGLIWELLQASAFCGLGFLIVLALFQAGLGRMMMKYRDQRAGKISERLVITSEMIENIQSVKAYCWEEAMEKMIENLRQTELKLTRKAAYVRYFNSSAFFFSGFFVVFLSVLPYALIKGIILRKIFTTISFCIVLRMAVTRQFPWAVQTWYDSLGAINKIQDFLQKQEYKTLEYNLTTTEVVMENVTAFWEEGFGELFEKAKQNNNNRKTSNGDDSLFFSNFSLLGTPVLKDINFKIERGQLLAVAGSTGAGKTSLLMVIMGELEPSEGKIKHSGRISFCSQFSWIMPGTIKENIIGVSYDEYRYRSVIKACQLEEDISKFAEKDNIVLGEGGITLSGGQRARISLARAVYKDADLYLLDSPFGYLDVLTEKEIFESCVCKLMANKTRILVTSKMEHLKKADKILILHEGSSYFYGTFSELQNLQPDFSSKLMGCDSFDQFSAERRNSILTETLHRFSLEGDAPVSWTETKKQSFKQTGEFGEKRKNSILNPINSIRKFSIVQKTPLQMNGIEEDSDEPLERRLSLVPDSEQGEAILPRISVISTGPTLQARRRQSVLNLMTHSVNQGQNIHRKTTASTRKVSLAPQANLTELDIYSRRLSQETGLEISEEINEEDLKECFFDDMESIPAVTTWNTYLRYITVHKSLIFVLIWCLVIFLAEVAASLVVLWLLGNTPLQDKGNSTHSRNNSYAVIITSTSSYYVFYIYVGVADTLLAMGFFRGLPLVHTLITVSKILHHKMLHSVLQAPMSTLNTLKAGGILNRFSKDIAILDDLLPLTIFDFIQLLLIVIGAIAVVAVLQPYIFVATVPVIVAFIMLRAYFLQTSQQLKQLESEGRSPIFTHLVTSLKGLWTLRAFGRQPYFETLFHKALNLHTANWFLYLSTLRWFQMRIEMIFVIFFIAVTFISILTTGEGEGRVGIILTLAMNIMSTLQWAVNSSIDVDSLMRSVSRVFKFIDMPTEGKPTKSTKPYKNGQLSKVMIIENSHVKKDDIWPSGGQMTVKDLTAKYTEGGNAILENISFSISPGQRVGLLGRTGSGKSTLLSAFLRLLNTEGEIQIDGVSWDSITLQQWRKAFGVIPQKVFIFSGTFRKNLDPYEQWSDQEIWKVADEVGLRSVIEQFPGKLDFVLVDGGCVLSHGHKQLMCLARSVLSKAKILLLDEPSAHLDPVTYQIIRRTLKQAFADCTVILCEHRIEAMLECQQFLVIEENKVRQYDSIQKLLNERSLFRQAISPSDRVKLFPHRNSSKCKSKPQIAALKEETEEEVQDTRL
# Test: Ussing chamber assay of CFTR-mediated short-circuit currents (identification of potentiator compounds)
# Assay type: cell-based
# Conditions: CFTR-mediated ISC in F508del/MF-HBE cells; incubated 18-24 hours at 37° C. with 10 μM (14S)-8-[3-(2-{dispiro[2.0.2.1]heptan-7-yl}ethoxy)-1H-pyrazol-1-yl]-...-2,2,4-trione, 20% human serum
# Method: Ussing Chamber Assay of CFTR-Mediated Short-Circuit Currents
# Ussing chamber experiments were performed using human bronchial epithelial (HBE) cells derived from CF subjects heterozygous for F508del and a minimal function CFTR mutation (F508del/MF-HBE) and cultured as previously described (Neuberger T, Burton B, Clark H, Van Goor F Methods Mol Biol 2011:741:39-54). After four days the apical media was removed, and the cells were grown at an air liquid interface for >14 days prior to use.
# To isolate the CFTR-mediated short-circuit (ISC) current, F508del/MF-HBE grown on Costar® Snapwell™ cell culture inserts were mounted in an Ussing chamber and the transepithelial ISC was measured under voltage-clamp recording conditions (Vhold=0 mV) at 37° C. The basolateral solution contained (in mM) 145 NaCl, 0.83 K2HPO4, 3.3 KH2PO4, 1.2 MgCl2, 1.2 CaCl2), 10 Glucose, 10 HEPES (pH adjusted to 7.4 with NaOH) and the apical solution contained (in mM) 145 NaGluconate, 1.2 MgCl2, 1.2 CaCl2), 10 glucose, 10 HEPES (pH adjusted to 7.4 with NaOH) and 30 μM amiloride to block the epithelial sodium channel. Forskolin (20 μM) was added to the apical surface to activate CFTR, followed by apical addition of a CFTR inhibitor cocktail consisting of BPO, GlyH-101 and CFTR inhibitor 172 (each at 20 μM final assay concentration) to specifically isolate CFTR currents. The CFTR-mediated ISC (μA/cm^2) for each condition was determined from the peak forskolin response to the steady-state current following inhibition.
# Identification of Potentiator Compounds
# The activity of the CFTR potentiator compounds on the CFTR-mediated ISC was determined in Ussing chamber studies as described above. The F508del/MF-HBE cell cultures were incubated with the potentiator compounds at a range of concentrations in combination with 10 μM (14S)-8-[3-(2-{dispiro[2.0.2.1]heptan-7-yl}ethoxy)-1H-pyrazol-1-yl]-12,12-dimethyl-2λ^6-thia-3,9,11,18,23-pentaazatetracyclo [17.3.1.111,14.05,10]tetracosa-1(22),5,7,9,19(23),20-hexaene-2,2,4-trione for 18-24 hours at 37° C. and in the presence of 20% human serum. The concentration of potentiator compounds and (14S)-8-[3-(2-{dispiro[2.0.2.1]heptan-7-yl}ethoxy)-1H-pyrazol-1-yl]-12,12-dimethyl-2λ^6-thia-3,9,11,18,23-pentaazatetracyclo [17.3.1.111,14.05,10]tetracosa-1(22),5,7,9,19(23),20-hexaene-2,2,4-trione used during the 18-24 hours incubations was kept constant throughout the Ussing chamber measurement of the CFTR-mediated ISC to ensure compounds were present throughout the entire experiment. The efficacy and potency of the putative F508del potentiators was compared to that of the known Vertex potentiator, ivacaftor (N-[2,4-bis(1,1-dimethylethyl)-5-hydroxyphenyl]-1,4-dihydro-4-oxoquinoline-3-carboxamide).
row,SMILES,EC50
1,"Nc1cc(C(F)(F)F)c2nc1-c1nnc(o1)C(O)(C(F)(F)F)CCCCCCC1CCCN21 (single isomer, unassigned) [Compound 23, 21-amino-6,19-bis(trifluoromethyl)-23-oxa-3,4,17,22-tetraazatetracyclo[16.3.1.12,5.013,17]tricosa-1(22),2,4,18,20-pentaen-6-ol]",< 500 nM
2,"Nc1cc(C(F)(F)F)c2nc1-c1nnc(o1)C(O)(C(F)(F)F)CCCCCCC1CCCN21 (single isomer, unassigned) [Compound 24, 21-amino-6,19-bis(trifluoromethyl)-23-oxa-3,4,17,22-tetraazatetracyclo[16.3.1.12,5.013,17]tricosa-1(22),2,4,18,20-pentaen-6-ol]",< 500 nM
3,"Nc1cc(C(F)(F)F)c2nc1-c1nnc(o1)C(O)(C(F)(F)F)CCCCCCC1CCCN21 (single isomer, unassigned) [Compound 25, 21-amino-6,19-bis(trifluoromethyl)-23-oxa-3,4,17,22-tetraazatetracyclo[16.3.1.12,5.013,17]tricosa-1(22),2,4,18,20-pentaen-6-ol]",< 500 nM
4,"CC1(C)CC2CCCCCC(O)(C(F)(F)F)C3=NN=C(O3)c3nc(c(C(F)(F)F)cc3N)N2C1 (single isomer, unassigned) [Compound 29, 20-amino-14,14-dimethyl-6,18-bis(trifluoromethyl)-22-oxa-3,4,16,21-tetraazatetracyclo[15.3.1.12,5.012,16]docosa-1(21),2,4,17,19-pentaen-6-ol]",< 500 nM
5,"Nc1cc(C(F)(F)F)c2nc1-c1nnc(o1)C(O)(C(F)(F)F)CCCC[C@@H]1CCCN21 (single isomer, unassigned) [Compound 32]",< 500 nM
6,"COCCN1CCCCCCC(O)(C(F)(F)F)C2=NN=C(O2)c2nc1c(C(F)(F)F)cc2N (single isomer, unassigned) [Compound 34, 17-amino-13-(2-methoxyethyl)-6,15-bis(trifluoromethyl)-19-oxa-3,4,13,18-tetrazatricyclo[12.3.1.12,5]nonadeca-1(18),2,4,14,16-pentaen-6-ol]",< 500 nM
7,"COCCN1CCCCCCC(O)(C(F)(F)F)C2=NN=C(O2)c2nc1c(C(F)(F)F)cc2N (single isomer, unassigned) [Compound 35, 17-amino-13-(2-methoxyethyl)-6,15-bis(trifluoromethyl)-19-oxa-3,4,13,18-tetrazatricyclo[12.3.1.12,5]nonadeca-1(18),2,4,14,16-pentaen-6-ol]",> 1000 nM
8,"CN1CCCCCCC(O)(C(F)(F)F)C2=NN=C(O2)c2nc1c(S(C)(=O)=O)cc2N (single isomer, unassigned) [Compound 39, 17-amino-13-methyl-15-methylsulfonyl-6-(trifluoromethyl)-19-oxa-3,4,13,18-tetrazatricyclo[12.3.1.12,5]nonadeca-1(18),2,4,14,16-pentaen-6-ol]",< 500 nM
9,"CN1CCCCCCC(O)(C(F)(F)F)C2=NN=C(O2)c2nc1c(S(C)(=O)=O)cc2N (single isomer, unassigned) [Compound 40, 17-amino-13-methyl-15-methylsulfonyl-6-(trifluoromethyl)-19-oxa-3,4,13,18-tetrazatricyclo[12.3.1.12,5]nonadeca-1(18),2,4,14,16-pentaen-6-ol]",500 to 1000 nM
10,"CC1(O)CCCCC[C@@H]2CCCN2c2nc(c(N)cc2C(F)(F)F)C2=NN=C1O2 (single isomer, unassigned) [Compound 45]",< 500 nM
11,"CNC(=O)CN1CCCCCCC(O)(C(F)(F)F)C2=NN=C(O2)c2nc1c(C(F)(F)F)cc2N (single isomer, unassigned) [Compound 48, 2-[17-amino-6-hydroxy-6,15-bis(trifluoromethyl)-19-oxa-3,4,13,18-tetrazatricyclo[12.3.1.12,5]nonadeca-1(18),2,4,14,16-pentaen-13-yl]-N-methyl-acetamide]",< 500 nM
12,"CC(C)N1CCCCCCC(O)(C(F)(F)F)C2=NN=C(O2)c2nc1c(C(F)(F)F)cc2N (single isomer, unassigned) [Compound 52, 17-amino-13-isopropyl-6,15-bis(trifluoromethyl)-19-oxa-3,4,13,18-tetrazatricyclo[12.3.1.12,5]nonadeca-1(18),2,4,14,16-pentaen-6-ol]",< 500 nM
13,"CC(C)N1CCCCCCC(O)(C(F)(F)F)C2=NN=C(O2)c2nc1c(C(F)(F)F)cc2N (single isomer, unassigned) [Compound 53, 17-amino-13-isopropyl-6,15-bis(trifluoromethyl)-19-oxa-3,4,13,18-tetrazatricyclo[12.3.1.12,5]nonadeca-1(18),2,4,14,16-pentaen-6-ol]",> 1000 nM
14,"Nc1cc(C(F)(F)F)c2nc1-c1nnc(o1)C(O)(C(F)(F)F)CCCCC[C@@H]1COCCN21 (single isomer, unassigned) [Compound 55]",> 1000 nM

# Further lines, results first:
row,EC50,SMILES
1,> 1000 nM,"Nc1cc(C(F)(F)F)c2nc1-c1nnc(o1)C(O)(C(F)(F)F)CCCCCCC1CCCN21 (single isomer, unassigned) [Compound 26, 21-amino-6,19-bis(trifluoromethyl)-23-oxa-3,4,17,22-tetraazatetracyclo[16.3.1.12,5.013,17]tricosa-1(22),2,4,18,20-pentaen-6-ol]"
2,> 1000 nM,"Nc1cc(C(F)(F)F)c2nc1-c1nnc(o1)C(O)(C(F)(F)F)CCCC[C@@H]1CCCN21 (single isomer, unassigned) [Compound 33]"
3,< 500 nM,"Nc1cc(C(F)(F)F)c2nc1-c1nnc(o1)C(O)(C(F)(F)F)CCCC(=O)N1CCN2CC1 (single isomer, unassigned) [Compound 37, 5-amino-11-hydroxy-3,11-bis(trifluoromethyl)-21-oxa-1,8,9,16,22-pentaazatetracyclo[14.2.2.12,6.17,10]docosa-2,4,6(22),7,9-pentaen-15-one]"
4,> 1000 nM,"Nc1cc(C(F)(F)F)c2nc1-c1nnc(o1)C(O)(C(F)(F)F)CCCC(=O)N1CCN2CC1 (single isomer, unassigned) [Compound 38, 5-amino-11-hydroxy-3,11-bis(trifluoromethyl)-21-oxa-1,8,9,16,22-pentaazatetracyclo[14.2.2.12,6.17,10]docosa-2,4,6(22),7,9-pentaen-15-one]"
5,< 500 nM,"Nc1cc(C(F)(F)F)c2nc1-c1nnc(o1)C(O)(C(F)(F)F)CCCCCCN2CCO (single isomer, unassigned) [Compound 41, 17-amino-13-(2-hydroxyethyl)-6,15-bis(trifluoromethyl)-19-oxa-3,4,13,18-tetrazatricyclo[12.3.1.12,5]nonadeca-1(18),2,4,14,16-pentaen-6-ol]"
6,500 to 1000 nM,"CN1CCN(C)c2nc(c(N)cc2C(F)(F)F)C2=NN=C(O2)C(O)(C(F)(F)F)CCC1=O (single isomer, unassigned) [Compound 44, 17-amino-6-hydroxy-10,13-dimethyl-6,15-bis(trifluoromethyl)-19-oxa-3,4,10,13,18-pentazatricyclo[12.3.1.12,5]nonadeca-1(18),2,4,14,16-pentaen-9-one]"
7,< 500 nM,"CCOC(=O)CN1CCCCCCC(O)(C(F)(F)F)C2=NN=C(O2)c2nc1c(C(F)(F)F)cc2N (single isomer, unassigned) [Compound 46, ethyl 2-[17-amino-6-hydroxy-6,15-bis(trifluoromethyl)-19-oxa-3,4,13,18-tetrazatricyclo[12.3.1.12,5]nonadeca-1(18),2,4,14,16-pentaen-13-yl]acetate]"
8,< 500 nM,"Cc1cc(N)c2nc1N1CCC[C@H]1CCCCCC(O)(C(F)(F)F)C1=NN=C2O1 (single isomer, unassigned) [Compound 51]"
9,< 500 nM,"Nc1cc(C(F)(F)F)c2nc1-c1nnc(o1)C(O)(C(F)(F)F)CCCCC[C@@H]1COCCN21 (single isomer, unassigned) [Compound 54]"
10,< 500 nM,"Nc1cc(C(F)(F)F)c2nc1-c1nnc(o1)C(O)(C(F)(F)F)CCCCCCN2 (single isomer, unassigned) [Compound 56, 17-amino-6,15-bis(trifluoromethyl)-19-oxa-3,4,13,18-tetrazatricyclo[12.3.1.12,5]nonadeca-1(18),2,4,14,16-pentaen-6-ol]"
